The series is described as follows: gradient 5% acetonitrile 3 min, to 50% in 2 min, to 85% in 15 min, held 3 min, 100 µL/min. Conditions: column: Zorbax Extend-C18 2.1 x 50 mm; eluents: water / acetonitrile, 0.1% formic acid. The method in brief:
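Over 3 months, pure standards in mixtures of ~100 molecules were run by HPLC coupled to a quadrupole time-of-flight mass spectrometer in positive and negative ionization mode. The column was a Zorbax Extend-C18 (2.1 × 50 mm, 1.8 μm) at 100 μL/min, eluted with water and acetonitrile each holding 0.1% formic acid, with 40 μL dead and 900 μL dwell volumes. Retention time was determined from adduct peaks chosen by software and checked manually.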
Regarding `CCCNC(=O)C1CCCN(c2ccc(SCC(=O)Nc3ccc(Cl)cc3)nn2)C1` (stereo not drawn), the RP-LC retention time worked out at 712 s. With `Cc1cn(C)c(CC(=O)NCCCN2CCOCC2)c1C(=O)O` the figure was 571 s.

The molecule `Cc1cccc(-c2noc(-c3ccc(N4CCN(c5ccccc5F)CC4)nc3)n2)c1` returned an RP-LC retention time of 613 s.

For `Cc1ccc(C)c(N2CCN(C(=O)CN(C)S(=O)(=O)c3ccc4c(c3)CCCC(=O)N4)CC2)c1`, the RP-LC retention time stood at 908 s. With `CCn1cnc(S(=O)(=O)N2CCCC(C(=O)Nc3ccc(C(C)C)cc3)C2)c1` (stereo not drawn) the figure was 878 s. With `O=C(NC1CCNCC1)c1[nH]ncc1NC(=O)c1c(Cl)cccc1Cl`, the RP-LC retention time is 639 s. Under `CCOCCCNC(=O)c1cc2c(n(-c3ccc(C(C)C)cc3)c1=O)CCCC2=O` stands 952 s; under `CS(=O)(=O)N1CCCc2cc(C(=O)NCCN3CCOCC3)ccc21`, 573 s; under `COc1cc(OC)cc(C(=O)N2CCC3(CC2)N=C(c2ccc(Cl)cc2)NO3)c1`, 893 s. `COc1ccc(NC(=O)N2CCC3(C2)C(=O)N(C)c2ccccc23)c(OC)c1` (stereo not drawn) displayed an RP-LC retention time of 776 s. Consider `O=C(Cc1ccc(Br)cc1)NC1CCN(c2cc(-c3ccc(Cl)cc3)[nH]n2)C1` (stereo not drawn), for which the RP-LC retention time amounted to 854 s. Turning to `COCCOCc1nc(C2CCCN2C(=O)c2ccsc2)no1` (stereo not drawn), the RP-LC retention time was found to be 679 s. With `O=C(c1cc(F)cc(F)c1)N1CCC(n2c(-c3ccco3)nc3cccnc32)C1` (stereo not drawn) the figure was 766 s. In turn, `Cc1ccn2cc(-c3ccc(NC(=O)c4ccccc4)cc3)nc2n1` showed an RP-LC retention time of 636 s. Under `O=C(Cn1cc(-c2nnco2)c2ccccc21)NCc1ccccc1F` stands 755 s; under `COCCn1ncc(N2CCC(NC(=O)C(C)(C)C)CC2)cc1=O`, 607 s. As for `Cc1ccc(-c2cn3c(n2)N(C(=O)Cn2ccnc2C)CCC3)cc1`, the RP-LC retention time was 628 s. With `COc1ccc(CN(CCC2(C(C)C)CCOC(C)(C)C2)C(C)=O)cc1` (stereo not drawn) the figure was 987 s; with `Cc1cc2c(N3CCCC(C(=O)N4CCN(c5ccccc5F)CC4)C3)nccc2s1` (stereo not drawn), 755 s; with `CC(=O)N1CCc2cc(N3CC(C(=O)Nc4ccc(Cl)cc4)CC3=O)ccc21` (stereo not drawn), 750 s. Under `CCN(CC)CCNc1ncnc2onc(-c3cccc(Cl)c3)c12` stands 660 s; under `CCN(C(=O)Cc1ccccc1)c1nc(-c2ccccc2)cs1`, 1270 s; under `COc1ccc(-c2nnc(-c3cc(S(=O)(=O)NCc4ccco4)ccc3Cl)o2)cc1`, 964 s.

Molecule `Cc1cc(OCC(=O)N(C)c2ccccc2)nc(N2CCN(c3ccccc3)CC2)n1` returned an RP-LC retention time of 859 s. As for `Cc1nc(C2CN(S(=O)(=O)c3ccccc3F)CC23CCOCC3)no1` (stereo not drawn), the RP-LC retention time was determined as 812 s. `CCN(CC)C(=O)c1ccc(-c2nc3cc(NS(=O)(=O)c4ccccc4Cl)ccc3n2C)cc1` came in with an RP-LC retention time of 695 s. On to `CN1C(=O)NC2(CCN(C(=O)C3c4ccccc4Oc4ccccc43)CC2)C1=O`, for which the RP-LC retention time came to 705 s.

In turn, `CC1CCc2c(C(=O)NCCc3ccccc3)csc2C1` (stereo not drawn) registered an RP-LC retention time of 1080 s. Take `CC(C)Cn1cc(CCNS(=O)(=O)c2cccc(Br)c2)c2cccnc21`: the RP-LC retention time amounted to 990 s. With `CC1(C(=O)NC2CCCCCCC2)CN(S(C)(=O)=O)CC(=O)N1c1ccc(Cl)cc1` (stereo not drawn) the figure was 952 s; with `CNC(=O)c1n[nH]c2c1CC(C(C)(C)C)CC2` (stereo not drawn), 786 s; with `COc1ccc(CCNC(=O)C2CCc3nc(N4CCCC4)ncc3C2)cc1OC` (stereo not drawn), 563 s. For the molecule `CCn1ncn2cc(S(=O)(=O)Nc3ccc(F)cc3)cc2c1=O`, the RP-LC retention time is 848 s.
